From patent US10729710B2, “Catecholamine prodrugs for use in the treatment of Parkinson's disease” (H. Lundbeck A/S, priority 2017, dated 2020)
pEC50: −log10 of the molar value. Counter-ions that a name gives are not always drawn.

Legend:
[1] = biological target: human D2 receptor (Homo sapiens (Human), UniProt P14416); test: Dopamine D2 receptor agonism, calcium mobilization assay; type: cell-based; details: for Emax: normalized to 1 μM dopamine = 100%
Experimental: Dopamine D2 receptor agonism was measured using a calcium mobilization assay protocol developed by HD Biosciences (China). Briefly, HEK293/G15 cells expressing human D2 receptor were plated at a density of 15000 cells/well in clear-bottomed, Matrigel-coated 384-well plates and grown for 24 hrs at 37° C. in the presence of 5% CO2. The cells were incubated with calcium-sensitive fluorescent dye, Fluo8, for 60-90 minutes at 37° C. in the dark. Test compounds were prepared at 3-fold concentrated solution in 1×HBSS buffer with Ca^2+ and Mg^2+. Calcium Flux signal was immediately recorded after compounds were added from compound plate to cell plate at FLIPR (Molecular Devices). The fluorescence data were normalized to yield responses for no stimulation (buffer) and full stimulation (1 μM of dopamine) of 0% and 100% stimulation, respectively. Test compound potency (EC50) was estimated by nonlinear regression using the sigmoidal dose-response (variable slope) using Xlfit 4 (IDBS, Guildford, Surrey, UK, model 205). y=(A+((B−A)/(1+((C/x)^D)))) where y is the normalized ratio measurement for a given concentration of test compound, x is the concentration of test compound, A is the estimated efficacy at infinite compound dilution, and B is the maximal efficacy. C is the EC50 value and D is the Hill slope coefficient. EC50 estimates were obtained from independent experiment and the logarithmic average was calculated.

[2] = biological target: human 5-HT2B receptor (Homo sapiens (Human), UniProt P41595); test: 5-HT2B radioligand binding assay ([125I](±)DOI); details: 0.2 nM [125I](±)DOI, read-out: 5-HT2B binding affinity (% inhibition of control, specific binding at concentration indicated)
Chain of human 5-HT2B receptor (P41595 whole entry): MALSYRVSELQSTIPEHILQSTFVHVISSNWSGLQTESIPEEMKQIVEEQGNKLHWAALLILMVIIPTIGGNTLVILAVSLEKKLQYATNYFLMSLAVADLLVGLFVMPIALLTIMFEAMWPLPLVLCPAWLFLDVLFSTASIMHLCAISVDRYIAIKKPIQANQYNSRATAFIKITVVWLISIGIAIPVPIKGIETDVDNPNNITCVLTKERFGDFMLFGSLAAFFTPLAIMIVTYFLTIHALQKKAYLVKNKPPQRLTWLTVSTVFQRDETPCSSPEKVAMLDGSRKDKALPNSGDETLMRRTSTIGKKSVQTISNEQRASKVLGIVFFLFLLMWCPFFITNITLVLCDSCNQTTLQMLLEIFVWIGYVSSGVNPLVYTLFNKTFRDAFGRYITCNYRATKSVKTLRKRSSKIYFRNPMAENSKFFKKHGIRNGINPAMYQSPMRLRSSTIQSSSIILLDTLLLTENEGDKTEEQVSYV
Experimental: Membrane homogenates prepared from CHO cells expressing the human 5HT2B receptor were incubated for 60 min at room temperature with 0.2 nM [125I](±)DOI (1-(4-iodo-2, 5-dimethoxyphenyl)propan-2-amine) in the absence or presence of the test compound in a buffer containing 50 mM Tris-HCl (pH 7.4), 5 mM MgCl2, 10 μM pargyline and 0.1% ascorbic acid. Nonspecific binding is determined in the presence of 1 μM (±)DOI. Following incubation, the samples were filtered rapidly under vacuum through glass fiber filters (GF/B, Packard) presoaked with 0.3% polyethyleneimine (PEI) and rinsed several times with ice-cold 50 mM Tris-HCl using a 96-sample cell harvester (Unifilter, Packard). The filters were dried and counted for radioactivity in a scintillation counter (Topcount, Packard) using a scintillation cocktail (Microscint 0, Packard). The results are expressed as a percent inhibition of the control radioligand specific binding. The standard reference compound was (±)DOI, which was tested in each experiment at several concentrations to obtain a competition curve from which its IC50 is calculated.

[3] = PK experiments in rats: plasma compound (I) after oral dosing of prodrugs; type: in vivo, Han Wistar rats; details: Wistar rats, FIG. 2, doses equal to 287 μg/kg of compound (I)
Experimental: Plasma was placed on water-ice following collection. Final storage at approximately −70° C.
Mobile phase B: Acetonitrile. […] Flow rate 0.5 mL/min.
The rats had unrestricted access to the diet.
Mobile phase B: Acetonitrile+0.2% formic acid. […] Flow rate 0.3 mL/min.
Han Wistar rats were supplied by Envigo, UK. […] The rats received a standard laboratory diet Teklad 2014C. The rats had unrestricted access to the diet.

[4] = tested on: hepatocytes from rat; test: Conversion to compound (I) in rat hepatocytes; type: in vitro ADME; details: 1 μg/mL, 37° C., 0.25-60 minutes, FIG. 7a
Experimental: The cell concentration at incubation was 1×10^6 viable cells/mL. The incubations were performed in glass tubes at 37° C. with a total incubation volume of 3.5 mL and with duplicate incubations for each test item. The 3.5 mL of hepatocyte suspension was equilibrated for 10 minutes in a water bath set to 37° C. where after the incubations were initiated by adding 3.5 μL of a stock solution of the test item in DMSO (Dimethyl sulfoxide) and gently inverting the tubes. The final solvent concentration in the incubations was 0.1% DMSO. Samples of 600 μL were withdrawn from the incubations at the pre-determined time points of 0.25, 5, 15, 30 and 60 minutes after ensuring homogeneity of hepatocyte suspensions. The withdrawn volume was added to 1 mL Nunc cryo tubes on wet ice containing 60 μL of ice cold ascorbic acid (100 mg/mL) and 30 μL of ice cold 100 mM saccharic acid 1.4-lactone in 0.5 M citric acid. The tubes were mixed and 35 μL of a solution of ice cold 20% formic acid was added. The tubes were mixed thoroughly and stored at −80° C. awaiting analysis. Analysis method and Instrumentation used for analysis of (I) from dosing (Id-ia), (Id-ib), (Id-iia) and (Id-iib), were the one described in Examples 4 and 5 below in the section “Instrumentation used for analysis of compound (I) from dosing of compounds (Ic), (Id-ia), (Id-ib), (Id-iia), (Id-iib), (Id-iab) and (Id-iiab).”
Analysis method and Instrumentation used for analysis of (I) from dosing (Id-iab) and (Id-iiab) consisted of mixing equal aliquots of the samples and precipitation solution (acetonitrile (MeCN) with 10% methanol (MeOH) and 1% formic acid), followed by centrifugation at 4° C. at 16000 g for 10 minutes. Supernatants were collected and analysed by LC-MS/MS. Mass spectrometer: Waters Acquity—Waters Xevo TQ-MS. Analytical column: Acquity UPLC HSS T3, 100×2.1 mm, 1.8 μm. Mobile phase A: 0.2% formic acid in water. Mobile phase B: 0.2% formic acid in acetonitrile. Gradient run from 95/5% to 60/40 in 5 min. Flow rate 0.3 mL/min. MRM monitoring of (I) in the study samples and in the analytical standards.

Chain of human D2 receptor (P14416 whole entry): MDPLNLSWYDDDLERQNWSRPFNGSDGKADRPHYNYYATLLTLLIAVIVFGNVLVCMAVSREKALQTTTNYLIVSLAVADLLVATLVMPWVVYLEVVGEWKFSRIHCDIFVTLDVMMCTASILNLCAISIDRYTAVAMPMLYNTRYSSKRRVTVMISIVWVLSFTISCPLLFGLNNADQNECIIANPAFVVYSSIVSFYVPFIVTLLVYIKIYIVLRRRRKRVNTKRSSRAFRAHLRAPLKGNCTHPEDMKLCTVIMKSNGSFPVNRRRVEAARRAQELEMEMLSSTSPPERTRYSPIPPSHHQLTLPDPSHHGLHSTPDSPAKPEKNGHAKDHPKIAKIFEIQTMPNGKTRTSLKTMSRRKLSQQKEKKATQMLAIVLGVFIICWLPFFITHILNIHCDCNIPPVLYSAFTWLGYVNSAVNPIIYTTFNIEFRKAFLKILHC

Row | Structure (SMILES) | Emax [1] [%] | inhibition at 10 µM [2] [%] | plasma profile of compound (I) after oral dosing (in words) [3] | conversion to compound (I) in rat hepatocytes [4] | pEC50 ([1]; HEK293/G15 cells expressing human D2 receptor, calcium flux)
1 | CCCN1CCC[C@@H]2Cc3c(ccc(O)c3O[C@@H]3O[C@H](C(=O)O)[C@@H](O)[C@H](O)[C@H]3O)C[C@H]21 [(Id-ia), (2S,3S,4S,5R,6S)-3,4,5-trihydroxy-6-(((4aR,10aR)-7-hydroxy-1-propyl-1,2,3,4,4a,5,10,10a-octahydrobenzo[g]quinolin-6-yl)oxy)tetrahydro-2H-pyran-2-carboxylic acid] | 92 | -25 | slower absorption rate avoiding rapid peak concentrations accompanied by a sustained exposure of compound (I) in plasma | time dependent conversion to compound (I) | 
2 | CCCN1CCC[C@@H]2Cc3c(ccc(O)c3OS(=O)(=O)O)C[C@H]21 [(Id-iia), (4aR,10aR)-7-hydroxy-1-propyl-1,2,3,4,4a,5,10,10a-octahydrobenzo[g]quinolin-6-yl hydrogen sulfate] | 48 | 6 | slower absorption rate avoiding rapid peak concentrations accompanied by a sustained exposure of compound (I) in plasma | time dependent conversion to compound (I) | < 4.52
